Experimental data from the Deep4Chem optical property database.

Test: photoluminescence quantum yield (fraction); solvent given as SMILES
[1] = in c1ccc2c(c1)c1ccccc1n2-c1ccc(-c2ccc(-n3c4ccccc4c4ccccc43)cc2)cc1

For `Cc1nc(-c2ccc(N3c4ccccc4C(c4ccccc4)(c4ccccc4)c4ccccc43)cc2)cc(-c2ccc(N3c4ccccc4C(c4ccccc4)(c4ccccc4)c4ccccc43)cc2)n1`, the photoluminescence quantum yield (in Cc1ccccc1) was 0.54 and the photoluminescence quantum yield (in O=P(c1ccccc1)(c1ccccc1)c1ccc2oc3ccc(P(=O)(c4ccccc4)c4ccccc4)cc3c2c1) was 0.92.
For `O=P1(c2ccccc2)C(c2cccs2)=C(c2cccs2)c2ccccc21` (stereo not drawn), the photoluminescence quantum yield (in C1CCOC1) was 0.006.
In the case of `O=P1(c2ccccc2)c2ccc(N3c4ccccc4Sc4ccccc43)cc2-c2cc(N3c4ccccc4Sc4ccccc43)ccc21`, the photoluminescence quantum yield (in Cc1ccccc1) is reported as 0.59 and the photoluminescence quantum yield [1] is reported as 0.53.
In the case of `COC(=O)C(NC(=O)OC(C)(C)C)c1ccc2oc(-c3ccc(OC(=O)c4ccccc4)cc3O)nc2c1` (stereo not drawn), the photoluminescence quantum yield (in CC1CCCCC1) is reported as 0.03, the photoluminescence quantum yield (in CC#N) is reported as 0.01 and the photoluminescence quantum yield (in CO) is reported as 0.003.
In the case of `CN(C)c1ccc2cc3ccc(=[N+](C)C)cc-3oc2c1`, the photoluminescence quantum yield (in CCO) is reported as 0.48 and the photoluminescence quantum yield (in O) is reported as 0.38.
In the case of `CCCCCCCCCCCCN1C(=O)c2c(c3ccc4cc(-c5ccc(C)cc5)c(OC)cc4c3c3c2ccc2cc(-c4ccc(C)cc4)c(OC)cc23)C1=O`, the photoluminescence quantum yield (in ClCCl) is reported as 0.151.
With `COc1ccc(C2=[N+]3C(=Nc4c5c6ccccc6c6ccc(C(C)(C)C)cc6c5c(-c5ccc(OC)cc5)n4[B-]3(F)F)c3c2c2cc(C(C)(C)C)ccc2c2ccccc32)cc1` the photoluminescence quantum yield (in Cc1ccccc1) was 0.32.
Work on `Oc1ccc2ccccc2c1C1Nc2cccc3cccc(c23)N1` yielded a photoluminescence quantum yield (in CC#N) of 0.03, a photoluminescence quantum yield (in CO) of 0.03 and a photoluminescence quantum yield (in CS(C)=O) of 0.14. For the same compound, the photoluminescence quantum yield (in Cc1ccccc1) was 0.33.
In the case of `CCCCCCCCC1(CCCCCCCC)c2cc(-c3ccc([Si](C)(C)C)cc3)ccc2-c2ccc(-c3ccc([Si](C)(C)C)cc3)cc21`, the photoluminescence quantum yield (in ClC(Cl)Cl) is reported as 0.89.
`N#Cc1nn(-c2cc(F)cc(F)c2)nc1N1CCCC1` showed a photoluminescence quantum yield (in CC#N) of 0.837.
Compound `CCN(CC)c1ccc([N+]2=Cc3ccc4c5c(ccc4c3O[B-]2(c2c(F)c(F)c(F)c(F)c2F)c2c(F)c(F)c(F)c(F)c2F)C=[N+](c2ccc(N(CC)CC)cc2)[B-](c2c(F)c(F)c(F)c(F)c2F)(c2c(F)c(F)c(F)c(F)c2F)O5)cc1` has a photoluminescence quantum yield (in Cc1ccccc1) of 0.33 and a photoluminescence quantum yield (in ClCCl) of 0.1.
Compound `COc1cc2c(cc1-c1ccsc1)Cc1c3c(c4c(c1-2)-c1cc(OC)c(-c2ccsc2)cc1C4)C(=O)N(CCC(C)C)C3=O` has a photoluminescence quantum yield (in C1CCOC1) of 0.55.
With `CCOC(=O)c1ccc(C2=CC3=c4cc(-c5ccc(C(=O)OCC)cc5)c5nc(C(F)(F)C(F)(F)C(F)(F)F)nc6c(-c7ccc(C(=O)OCC)cc7)cc(c4c65)C4=CC(c5ccc(C(=O)OCC)cc5)=C5N=C(C(F)(F)C(F)(F)C(F)(F)F)N=C2C5C43)cc1` (stereo not drawn) the photoluminescence quantum yield (in C1CCOC1) was 0.79.
`CCCCCCCCOc1ccc(-c2c3c4n(c(-c5ccc(OCCCCCCCC)cc5)c3c3n2[B-](F)(F)[n+]2ccccc2N=3)[B-](F)(F)[n+]2ccccc2N=4)cc1` gave a photoluminescence quantum yield (in ClC(Cl)Cl) of 0.89.
Work on `N#Cc1c(-n2nnc3ccccc32)n([C@H]2C[C@H](O)[C@@H](CO)O2)c2ncnc(N)c12` yielded a photoluminescence quantum yield (in CO) of 0.002.
`Fc1c(F)c(-n2c3ccccc3c3ccccc32)c(F)c(-n2c3ccccc3c3ccccc32)c1-c1nnc(-c2ccccc2)o1` showed a photoluminescence quantum yield (in Cc1ccccc1) of 0.08.
With `C(#Cc1nccnc1C#Cc1ccccc1)c1ccccc1` the photoluminescence quantum yield (in CC#N) was 0.07.
With `C1=Cc2ccccc2C(=Cc2ccc(C=C3c4ccccc4-c4ccccc43)cc2)c2ccccc21` the photoluminescence quantum yield (in C1CCOC1) was 4e-05.
For `CN(C)c1ccc(/C=C/c2cnc3ccccc3n2)cc1`, the photoluminescence quantum yield (in ClCCl) was 0.59.
With `C(#Cc1cccc2cc(-c3ccccc3)c3cc(-c4cc[b-]5c(c4)c(-c4ccccc4)cc4cccc(C#Cc6ccccc6)[n+]54)cc[b-]3[n+]12)c1ccccc1` the photoluminescence quantum yield (in C1CCCCC1) was 0.02.
`COc1ccc(O[B-]2(Oc3ccc(OC)cc3)n3c(C)cc(C)c3C(c3ccc(I)cc3)=C3C(C)=CC(C)=[N+]32)cc1` gave a photoluminescence quantum yield (in ClC(Cl)Cl) of 0.004.
`c1ccc(CSc2c3ccc(=[N+]4CCCCC4)cc-3oc3cc(N4CCCCC4)ccc23)cc1` gave a photoluminescence quantum yield (in ClCCl) of 0.79.
For `COc1ccc(C2=C3C=CC(=[N+](C)C)C=C3[Si](C)(C)c3cc(N(C)C)ccc32)c(C)c1`, the photoluminescence quantum yield (in O) was 0.29.
Work on `Cc1cc(C)c(B(c2c(C)cc(C)cc2C)c2c(C)cc(N3c4ccccc4Oc4ccccc43)cc2C)c(C)c1` yielded a photoluminescence quantum yield (in Cc1ccccc1) of 0.44 and a photoluminescence quantum yield [1] of 0.92.
Compound `O=C1Cc2ccc(cc2)CC(=O)Cc2ccc(c3nsnc23)C1` has a photoluminescence quantum yield (in C1CCCCC1) of 0.85, a photoluminescence quantum yield (in CC#N) of 0.45 and a photoluminescence quantum yield (in ClC(Cl)Cl) of 0.68.
`c1ccc(-c2cc3cccc4cc(-c5ccccc5)c5cc(-c6cc7[b-]8c(c6)c(-c6ccccc6)cc6cccc(cc7-c7ccccc7)[n+]86)cc2[b-]5[n+]34)cc1` showed a photoluminescence quantum yield (in C1CCCCC1) of 0.12.
With `Clc1ccc(-c2nc3ccccc3c3cc4ccccn4c23)s1` the photoluminescence quantum yield (in CS(C)=O) was 0.11.
In the case of `CC(C)(C)c1ccc2c(c1)c1cc(C(C)(C)C)ccc1n2-c1ccc2c(c1)C(=O)c1ccc(-n3c4ccc(C(C)(C)C)cc4c4cc(C(C)(C)C)ccc43)cc1C2=O`, the photoluminescence quantum yield (in Cc1ccccc1) is reported as 0.15 and the photoluminescence quantum yield [1] is reported as 0.52.
Compound `CC/[NH+]=c1\cc2oc3cc(NCCC(=O)NCC(=O)OC)c4ccccc4c3nc-2cc1C` has a photoluminescence quantum yield (in CCO) of 0.37 and a photoluminescence quantum yield (in O) of 0.45.
With `O=[N+]([O-])c1ccc([N+]2=Cc3ccc4c5c(ccc4c3O[B-]2(c2c(F)c(F)c(F)c(F)c2F)c2c(F)c(F)c(F)c(F)c2F)C=[N+](c2ccc([N+](=O)[O-])cc2)[B-](c2c(F)c(F)c(F)c(F)c2F)(c2c(F)c(F)c(F)c(F)c2F)O5)cc1` the photoluminescence quantum yield (in Cc1ccccc1) was 0.83 and the photoluminescence quantum yield (in ClCCl) was 0.66.
For `c1ccc(Nc2nc(Nc3ccccc3)nc(Nc3cc4ccc5cccc6ccc(c3)c4c56)n2)cc1`, the photoluminescence quantum yield (in CC#N) was 0.19, the photoluminescence quantum yield (in CCCCOCCCC) was 0.21 and the photoluminescence quantum yield (in CO) was 0.21.
Compound `COc1cc(N(c2ccccc2)c2ccccc2)ccc1C=C(C#N)C#N` has a photoluminescence quantum yield (in C1COCCO1) of 0.012, a photoluminescence quantum yield (in CC#N) of 0.005 and a photoluminescence quantum yield (in CC(C)=O) of 0.013. For the same compound, the photoluminescence quantum yield (in CCOC(C)=O) was 0.017, the photoluminescence quantum yield (in CN(C)C=O) was 0.009 and the photoluminescence quantum yield (in CO) was 0.006. The photoluminescence quantum yield (in Cc1ccccc1) was 0.01, the photoluminescence quantum yield (in ClC(Cl)Cl) was 0.023 and the photoluminescence quantum yield (in ClCCl) was 0.016.
For `COc1ccc(/C=C/c2nc3ccccc3s2)cc1`, the photoluminescence quantum yield (in C1CCCCC1) was 0.005 and the photoluminescence quantum yield (in CO) was 0.001.
`F[B-]1(F)n2c(cc3c2-c2ccccc2CC3)C(c2ccc(I)cc2)=C2C=C3CCc4ccccc4C3=[N+]21` showed a photoluminescence quantum yield (in ClC(Cl)Cl) of 0.38.
`F[B-]1(F)n2cccc2C(c2ccccc2)=C2C=CC(c3cccc(OC4=[N+]5C(=C(c6ccccc6)c6cc(Br)c(-c7ccc[nH]7)n6[B-]5(F)F)C=C4Br)c3)=[N+]21` gave a photoluminescence quantum yield (in ClC(Cl)Cl) of 0.18.
In the case of `Cc1cccn2c1cc1c3ccccc3nc(-c3cccs3)c12`, the photoluminescence quantum yield (in CS(C)=O) is reported as 0.2.
With `COc1ccc2cc(/C=C/C3=[O+][B-](F)(F)OC(/C=C/c4ccc5cc(OC)ccc5c4)=C3c3ccccc3)ccc2c1` the photoluminescence quantum yield (in ClCCl) was 0.51.
For `C=Cc1ccc(OC)c(OC)c1`, the photoluminescence quantum yield (in C1CCCCC1) was 0.32 and the photoluminescence quantum yield (in CC#N) was 0.29.
Compound `CCN(CC)c1ccc2c(-c3ccc(S(=O)(=O)O)cc3S(=O)(=O)[O-])c3ccc(=[N+](CC)CC)cc-3oc2c1` has a photoluminescence quantum yield (in CC#N) of 0.58, a photoluminescence quantum yield (in CCO) of 0.66 and a photoluminescence quantum yield (in CN(C)C=O) of 0.54. The photoluminescence quantum yield (in O) was 0.36.
`F[B-]1(F)N2C=CN=CC2=[N+]2[N+]1=Cc1c(-c3ccccc3)cc(-c3cccs3)n1[B-]2(F)F` showed a photoluminescence quantum yield (in ClCCl) of 0.45.
In the case of `CC1=C(Br)C(C)=[N+]2C1=C(c1c(-c3ccccn3)nc3ccccn13)c1c(C)c(Br)c(C)n1[B-]2(F)F`, the photoluminescence quantum yield (in ClCCl) is reported as 0.0641.
Work on `CC(C)(C)c1cc(-c2c3cccc4c5cccc6c(-c7cc(C(C)(C)C)cc(C(C)(C)C)c7)c7cccc8c9cccc2c9c(c34)c(c65)c78)cc(C(C)(C)C)c1` yielded a photoluminescence quantum yield (in Cc1ccccc1) of 0.81.
Compound `Cc1cn(CCCn2cc(C)c(=O)[nH]c2=O)c(=O)nc1-n1cncn1` has a photoluminescence quantum yield (in O) of 0.016.
Compound `COc1cc(/C=C/c2ccncc2)c(OC)cc1C=O` has a photoluminescence quantum yield (in C1CCOC1) of 0.11, a photoluminescence quantum yield (in CC#N) of 0.17 and a photoluminescence quantum yield (in CN(C)C=O) of 0.15. The photoluminescence quantum yield (in Cc1ccccc1) was 0.09 and the photoluminescence quantum yield (in ClCCl) was 0.26.
Compound `CC(C)[Si](C#Cc1c2ccccc2c(C#C[Si](C(C)C)(C(C)C)C(C)C)c2nc3c(nc12)Cc1ccccc1-3)(C(C)C)C(C)C` has a photoluminescence quantum yield (in CCCCCC) of 0.47.
`Fc1ccc(N(c2ccc(F)cc2)c2ccc3c4cccc5c(N(c6ccc(F)cc6)c6ccc(F)cc6)ccc(c6cccc2c63)c54)cc1` gave a photoluminescence quantum yield (in ClCCl) of 0.64.
`C=CC1CN2CCC1CC2[C@H](O)c1ccnc2ccc(OC)cc12` (stereo partly drawn) showed a photoluminescence quantum yield (in O) of 0.546.
With `Oc1cccc(O)c1-c1c2ccc(=[N+]3CCCCC3)cc-2oc2cc(N3CCCCC3)ccc12` the photoluminescence quantum yield (in CCO) was 0.26.
Compound `CCCCCCOc1cc(/C=C/c2cc(OCCCCCC)c(/C=C/c3cc(OCCCCCC)c(C=C(C#N)C#N)cc3OCCCCCC)cc2OCCCCCC)c(OCCCCCC)cc1C=C(C#N)C#N` has a photoluminescence quantum yield (in ClCCl) of 0.13.
In the case of `COc1ccc2c3c(c4ccc(OC)cc4c2c1)C(C)(C)c1ccc2ccccc2c1-3`, the photoluminescence quantum yield (in C1CCCCC1) is reported as 0.26.
`COc1ccc(/C=C/c2nc(/C=C/c3ccc(N(C)C)cc3)cc(/C=C/c3ccc(N(c4ccccc4)c4ccccc4)cc3)n2)cc1` showed a photoluminescence quantum yield (in ClCCl) of 0.68.
For `c1ccc(B2Nc3cc4c(cc3-c3sccc32)NB(c2ccccc2)c2ccsc2-4)cc1`, the photoluminescence quantum yield (in ClCCl) was 0.17.
Work on `CCOC(=O)/C(C)=C/C1=C(c2ccc(C)cc2)C2=Nc3c(-c4ccc(C)cc4)c(Br)c(-c4ccc(C)cc4)n3[B-](F)(F)[N+]2=C1c1ccc(C)cc1` yielded a photoluminescence quantum yield (in ClC(Cl)Cl) of 0.03.
For `CC1=C(c2ccc(N(c3ccccc3)c3ccccc3)cc2)C(C)=[N+]2C1=C(c1c(-c3ccccn3)nc3ccccn13)c1c(C)cc(C)n1[B-]2(F)F`, the photoluminescence quantum yield (in ClCCl) was 0.0038.
`c1ccc(-c2cc3cccc[n+]3[b-]3c(-c4cccc5[b-]4[n+]4ccccc4cc5-c4ccccc4)cccc32)cc1` gave a photoluminescence quantum yield (in C1CCCCC1) of 0.02.
With `CCOC(=O)c1cc(C(=O)OCC)c2cc(N(C)C)ccc2n1` the photoluminescence quantum yield (in CCO) was 0.595.
For `CC(C)(C)c1cc(-c2ccc(-c3cc(C(C)(C)C)cc(C(C)(C)C)c3)cc2)cc(C(C)(C)C)c1`, the photoluminescence quantum yield (in C1COCCO1) was 0.58.
`N#Cc1c(-n2c3ccccc3c3ccccc32)c(F)c(-n2c3ccccc3c3ccccc32)c(F)c1-n1c2ccccc2c2ccccc21` showed a photoluminescence quantum yield (in Cc1ccccc1) of 0.76 and a photoluminescence quantum yield (in c1ccc([Si](c2ccccc2)(c2ccc(-n3c4ccccc4c4ccccc43)cc2)c2ccc(-n3c4ccccc4c4ccccc43)cc2)cc1) of 0.74.
